pIC50: −log10 of the molar value.
Each compound was assayed on BaF3 (assay: Antiproliferative activity against mouse BaF3 cells transfected with TEL-AXL assessed as inhibition of cell growth incubated for 72 hrs). Conditions: BaF3, 72 h.
Type: functional, cell-based
In the case of `Nc1nc(Nc2ccc3c(c2)CCC(N2CCCC2)CC3)nn1-c1cc2c(nn1)-c1ccccc1CCC2` (single isomer, unassigned) [BEMCENTINIB], the pIC50 was 7.01. Work on `COc1cc2c(Oc3ccc(Nc4nn(C)cc4C(=O)NC4CCCCC4)cc3F)ccnc2cc1OCCCN(C)C` yielded a pIC50 of 7.94. With `COc1cc2c(Oc3ccc(Nc4nn(C)cc4C(=O)NC4CCCCC4)cc3F)ccnc2cc1OCCCN1CCN(C)CC1` the pIC50 was 8.05.

These compounds were tested against T1, Tyrosine-protein kinase receptor UFO (Homo sapiens, UniProt P30530) (assay: Inhibition of recombinant AXL (unknown origin) using poly (Glu,Tyr) 4:1 as substrate incubated for 60 mins in presence of ATP by ELISA). Conditions: not given.
T1 sequence (P30530 whole entry): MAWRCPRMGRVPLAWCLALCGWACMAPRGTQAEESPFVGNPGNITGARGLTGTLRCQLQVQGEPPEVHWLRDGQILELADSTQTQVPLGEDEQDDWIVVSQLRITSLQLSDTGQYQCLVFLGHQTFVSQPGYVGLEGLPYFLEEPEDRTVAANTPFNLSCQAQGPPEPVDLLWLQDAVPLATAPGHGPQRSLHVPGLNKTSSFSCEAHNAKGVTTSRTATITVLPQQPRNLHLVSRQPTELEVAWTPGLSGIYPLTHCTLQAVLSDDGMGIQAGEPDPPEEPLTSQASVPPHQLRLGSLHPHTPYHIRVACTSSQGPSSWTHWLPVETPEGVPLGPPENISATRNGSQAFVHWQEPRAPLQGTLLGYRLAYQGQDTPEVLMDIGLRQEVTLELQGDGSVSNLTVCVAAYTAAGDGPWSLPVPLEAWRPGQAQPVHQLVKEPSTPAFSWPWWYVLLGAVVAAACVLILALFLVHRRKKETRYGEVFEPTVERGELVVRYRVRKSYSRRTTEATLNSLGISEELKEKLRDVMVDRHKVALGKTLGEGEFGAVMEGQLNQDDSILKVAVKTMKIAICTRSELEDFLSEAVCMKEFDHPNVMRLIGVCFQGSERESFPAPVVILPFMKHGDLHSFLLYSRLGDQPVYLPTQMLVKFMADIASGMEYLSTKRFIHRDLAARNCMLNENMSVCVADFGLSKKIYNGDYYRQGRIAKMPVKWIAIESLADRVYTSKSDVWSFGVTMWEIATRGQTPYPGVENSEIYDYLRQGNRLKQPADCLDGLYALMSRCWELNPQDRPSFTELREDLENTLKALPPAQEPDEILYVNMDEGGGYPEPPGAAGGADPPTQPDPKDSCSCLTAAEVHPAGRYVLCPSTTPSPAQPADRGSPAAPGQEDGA
Work on `COc1cc2nccc(Oc3ccc(Nc4nn(C)cc4C(=O)NC4CCCCC4)cc3)c2cc1OC` yielded a pIC50 of 7.46. With `CNC(=O)c1cn(C)nc1Nc1ccc(Oc2ccnc3cc(OC)c(OC)cc23)c(F)c1` the pIC50 was < 6.00. In the case of `CCNC(=O)c1cn(C)nc1Nc1ccc(Oc2ccnc3cc(OC)c(OC)cc23)c(F)c1`, the pIC50 was 6.62. `COc1cc2nccc(Oc3ccc(Nc4nn(C)cc4C(=O)Nc4ccc(OC(F)(F)F)cc4)cc3F)c2cc1OC` was tested, and the pIC50 was < 6.00. For `COc1cc2nccc(Oc3ccc(Nc4nn(C)cc4C(=O)Nc4ccc(F)cc4)cc3F)c2cc1OC`, the pIC50 was 7.40. In the case of `COc1cc2c(Oc3ccc(Nc4nn(C)cc4C(=O)NC4CCCCC4)cc3F)ccnc2cc1OCCCN(C)C`, the pIC50 was 8.49. `COc1cc2nccc(Oc3ccc(Nc4nn(C)cc4C(=O)NC4CCCCC4)cc3F)c2cc1OC` showed a pIC50 of 7.94. In the case of `COc1cc2nccc(Oc3ccc(Nc4nn(C)cc4C(=O)NC4CCCCC4)cc3C)c2cc1OC`, the pIC50 was 7.39. In the case of `COCCOc1cc2nccc(Oc3ccc(Nc4nn(C)cc4C(=O)NC4CCCCC4)cc3F)c2cc1OC`, the pIC50 was 8.11. `COc1cc2nccc(Oc3ccc(Nc4nn(C)cc4C(=O)NC4C5CC6CC(C5)CC4C6)cc3F)c2cc1OC` (stereo not given) was tested, and the pIC50 was 7.88. `COc1cc2nccc(Oc3ccc(Nc4nn(C)cc4C(=O)NC4CC4)cc3F)c2cc1OC` was tested, and the pIC50 was 6.23. For `COc1cc2nccc(Oc3ccc(Nc4nn(C)cc4C(=O)NC4CCCCCCC4)cc3F)c2cc1OC`, the pIC50 was 7.90. `COc1cc2nccc(Oc3ccc(Nc4nn(C)cc4C(=O)Nc4cccc(F)c4)cc3F)c2cc1OC` was tested, and the pIC50 was 6.58. `COc1cc2nccc(Oc3ccc(Nc4nn(C)cc4C(=O)NC4CCCCC4)cc3OC)c2cc1OC` was tested, and the pIC50 was 7.39. In the case of `COc1ccc(NC(=O)c2cn(C)nc2Nc2ccc(Oc3ccnc4cc(OC)c(OC)cc34)c(F)c2)cc1`, the pIC50 was 7.06. For `COc1cc2nccc(Oc3ccc(Nc4nn(C)cc4C(=O)Nc4ccc(C)cc4)cc3F)c2cc1OC`, the pIC50 was 7.64. With `COc1cc2nccc(Oc3ccc(Nc4nn(C)cc4C(=O)Nc4ccc(OC(F)F)cc4)cc3F)c2cc1OC` the pIC50 was 7.19. In the case of `COc1cc2nccc(Oc3ccc(Nc4nn(C)cc4C(=O)Nc4ccccc4)cc3F)c2cc1OC`, the pIC50 was 7.60. With `COc1cc2c(Oc3ccc(Nc4nn(C)cc4C(=O)NC4CCCCC4)cc3F)ccnc2cc1OCCCN1CCCCC1` the pIC50 was 8.25. In the case of `COc1cc2c(Oc3ccc(Nc4nn(C)cc4C(=O)NC4CCCCC4)cc3F)ccnc2cc1OCCCN1CCN(C)CC1`, the pIC50 was 8.54. Compound `COc1cc2nccc(Oc3ccc(Nc4nn(C)cc4C(=O)NC(C)(C)C)cc3F)c2cc1OC` has a pIC50 of 6.85. `COc1cc2nccc(Oc3ccc(Nc4nn(C)cc4C(=O)N4CCCCC4)cc3F)c2cc1OC` was tested, and the pIC50 was < 6.00. `COc1cc2nccc(Oc3ccc(Nc4nn(C)cc4C(=O)NC4CCCC4)cc3F)c2cc1OC` showed a pIC50 of 7.56. `COc1cc2nccc(Oc3ccc(Nc4nn(C)cc4C(=O)NC4CCOCC4)cc3F)c2cc1OC` showed a pIC50 of 6.92. For `COCCCOc1cc2nccc(Oc3ccc(Nc4nn(C)cc4C(=O)NC4CCCCC4)cc3F)c2cc1OC`, the pIC50 was 8.07. In the case of `COc1cc2nccc(Oc3ccc(Nc4nn(C)cc4C(=O)Nc4ccc(C(C)C)cc4)cc3F)c2cc1OC`, the pIC50 was < 6.00. For `COc1cc2nccc(Oc3ccc(Nc4nn(C)cc4C(=O)NC4CCC(F)(F)CC4)cc3F)c2cc1OC`, the pIC50 was 7.19.

Source: ChEMBL document CHEMBL5096241, “Discovery of 3-Aminopyrazole Derivatives as New Potent and Orally Bioavailable AXL Inhibitors” (J Med Chem, 2022)
